Results as given in article PMC7235250, “Estimation of dietary ^14C dose coefficient using ^13C-labelled compound administration analysis” (Scientific Reports, 2020).

Experiments:
[1] = Second experiment: ^13C-labelled compounds once daily for 4 successive days, ^13C/^12C ratio in breath and hair, metabolic model; details: oral once daily for 4 days; for Rr, recovery ratio of administered ^13C / dB, distribution ratio of ^13C into breath pathway to administered ^13C / dBf, distribution ratio into fast compartment of breath pathway / dO, distribution ratio of ^13C into other* pathway (hair) to administered ^13C / dOf, distribution ratio into fast compartment of other* pathway / kBf, excretion rate constant, fast compartment, breath pathway / kBs, excretion rate constant, slow compartment, breath pathway / kOf, excretion rate constant, fast compartment, other* pathway / kOs, excretion rate constant, slow compartment, other* pathway: mean
Excerpt: The rate of ^13C excretion for each pathway (Em, g d^−1) is given by the following equations:1 Em=∑nkmndmdmnkm/km−kmn(e^−kmnt−e^−kmt) where, m is the excretion pathway symbol of B, U, F, and O corresponding to the excretion pathways of breath, urine, faeces, and other*, respectively; n is the symbol of f and s corresponding to the compartments with fast and slow metabolism, respectively; km and kmn are the excretion rate constants from compartment Cm and Cmn, respectively; dm is the distribution ratio of ^13C into compartment Cm to the administered ^13C; dmn is the distribution ratio of ^13C into compartment Cmn to ^13C from compartment Cm; Rr is the recovery ratio of administered ^13C. The sum of distribution ratios of compartments with fast and slow metabolism was fixed to unity (i.e. dBf + dBs = 1).
Additional doses of ^13C-labelled compounds were administered on day 160 for marking the ^13C/^12C ratio of hair samples and the volunteers freely ate meals without calorific restrictions.
In the first experiment, breath, urine, faeces, and hair samples were periodically collected and the ^13C/^12C ratio was analysed following the procedure described in a previous paper. […] Faecal samples were collected once before day 0 and at every defecation from day 0 to 14. On day 0, additional breath and urine samples were collected frequently after administration. […] According to the section number of the two peaks, the experimental date for each section between the two peaks was determined under an assumption of uniform hair growth.
Some volunteers also dropped out of the sampling procedure for various reasons.
The detailed procedures used were described in a previous published paper. When urine and hair samples had no increase phase, the values of kU and kO were fixed to those of kB obtained from the same volunteers in the regression analysis.

[2] = set-up: method as in doi:10.1093/oxfordjournals.rpd.a032384; details: rats, 100 days after administration; cited from earlier work
[3] = set-up: method as in PMID 14371643; details: intravenous administration; cited from earlier work
[4] = 50-year cumulative body burden and committed effective dose / dose coefficient calculated with the metabolic models; set-up: species or system human; details: orally ingested 1 g of ^13C
Excerpt: The dose coefficients obtained with each assumption are called non conservative estimation (ER) and conservative estimation (EC) hereafter. The recovered fraction was assumed to be distributed uniformly in the whole-body carbon with a tissue weighting factor of unity. […] In addition to these estimations, we calculated the most conservative estimation (EX) adopting the tissue weighting factor of unity for unrecovered carbon. We solely adopted the value for the maximal estimation.
The 50-year cumulative body burden of ^14C after a single ingestion of 1 Bq of ^14C in each compound (BC Bq d) was calculated using the metabolic model and its parameters described above, under the assumption of the same metabolic behaviour of ^13C and ^14C. […] The total cumulative burden was derived as a sum of burdens from the recoverable and unrecoverable fractions with designated proportions Rr and 1−Rr, respectively. For the recoverable fraction, the burden was calculated using following equation:2 BC≈∑mdm/km+∑m∑ndmdmn/kmn where, every dm was divided by Rr when Rr was larger than unity.
The 50-year committed effective dose (Sv) from ingestion of 1 Bq ^14C was calculated from the 50-year cumulative burden by using the ratio of absorbed dose to ^14C radioactivity, radiation weighting factor of beta-ray from ^14C (1.0) and tissue weighting factors. […]

With `NCC(=O)O` [Glycine, glycine] the “Rr, recovery ratio of administered ^13C” value ([1]; All (both sexes)) was 1.0, the “dB, distribution ratio of ^13C into breath pathway to administered ^13C” value (“dB, distribution ratio” below) ([1]; All (both sexes)) was 0.80 and the “dBf, distribution ratio into fast compartment of breath pathway” value ([1]; All (both sexes)) was 0.36. The “dO, distribution ratio of ^13C into other* pathway (hair) to administered ^13C” value (“dO, distribution ratio” below) ([1]; All (both sexes)) was 0.18, the “dOf, distribution ratio into fast compartment of other* pathway” value ([1]; All (both sexes)) was 0.50 and the “kBf, excretion rate constant, fast compartment, breath pathway” value (from here on “kBf, excretion rate constant”) ([1]; All (both sexes)) was 11 day⁻¹. For the same compound, the “kBs, excretion rate constant, slow compartment, breath pathway” value (“kBs, excretion rate constant” for short) ([1]; All (both sexes)) was 0.17 day⁻¹, the “kOf, excretion rate constant, fast compartment, other* pathway” value (“kOf, excretion rate constant” for short) ([1]; All (both sexes)) was 0.10 day⁻¹ and the “kOs, excretion rate constant, slow compartment, other* pathway” value (“kOs, excretion rate constant” for short) ([1]; All (both sexes)) was 0.0086 day⁻¹. For the same compound, the “Rr, recovery ratio of administered ^13C” value ([1]; Female) was 1.0, the “dB, distribution ratio” value ([1]; Female) was 0.84 and the “dBf, distribution ratio into fast compartment of breath pathway” value ([1]; Female) was 0.36. The “dO, distribution ratio” value ([1]; Female) was 0.18, the “dOf, distribution ratio into fast compartment of other* pathway” value ([1]; Female) was 0.52 and the “kBf, excretion rate constant” value ([1]; Female) was 11 day⁻¹. For the same compound, the “kBs, excretion rate constant” value ([1]; Female) was 0.18 day⁻¹, the “kOf, excretion rate constant” value ([1]; Female) was 0.098 day⁻¹ and the “kOs, excretion rate constant” value ([1]; Female) was 0.0091 day⁻¹. For the same compound, the “Rr, recovery ratio of administered ^13C” value ([1]; Male) was 0.93, the “dB, distribution ratio” value ([1]; Male) was 0.74 and the “dBf, distribution ratio into fast compartment of breath pathway” value ([1]; Male) was 0.37. For the same compound, the “dO, distribution ratio” value ([1]; Male) was 0.18, the “dOf, distribution ratio into fast compartment of other* pathway” value ([1]; Male) was 0.47 and the “kBf, excretion rate constant” value ([1]; Male) was 9.7 day⁻¹. For the same compound, the “kBs, excretion rate constant” value ([1]; Male) was 0.16 day⁻¹, the “kOf, excretion rate constant” value ([1]; Male) was 0.11 day⁻¹ and the “kOs, excretion rate constant” value ([1]; Male) was 0.0080 day⁻¹. For the same compound, the “estimated distribution ratio of ^13C for the breath pathway (dB)” value ([1]; mean ± S.D., both sexes) was 80 ± 9%.

For `CCCCCCCC/C=C\CCCCCCCC(=O)O` [^14C-labelled oleic acid, oleic acid], the “^14C concentration in adipose tissue relative to that of palmitic acid” value [2] is given as “three times higher”.

In the case of `N[14CH2]C(=O)O` [glycine-[2-^14C]], the “recovery through the breath pathway” value [3] is given as 86%.

For `CCCCCCCCCCCCCCCC(=O)O` [palmitic acid], the “contribution of faeces pathway to 50-year cumulative body burden” value [4] was 0.034 ± 0.070% and the “contribution of urine pathway to 50-year cumulative body burden” value [4] was 0.038 ± 0.030%.
